# According to patent US20200281897A1, “INDAZOLE DERIVATIVES FOR CANCER TREATMENT” (Servicio Andaluz de Salud, priority 2016, published 2020):
# Columns and labels:
# RPMI8226 = assay: MTT cell viability assay, myeloma cell line RPMI; type: cell-based, human; conditions: RPMI, MTT, 18 hours, doses 0-50 μM; read-out: IC50, cell viability
# Description: (§1) In vitro studies were carried out using six different human MM cell lines, U266, RPMI8226, MM1S, MM1R, U266-LR7, and RPMI-LR5. For ex vivo assays, human primary cells from healthy donors and MM patients were used (Table 1). Human MM cell lines U266, RPMI8226, and MM1.S were acquired from ATCC and lines U266-LR7, RPMI-LR5, and MM1.R were kindly provided by Dr. Enrique Ocio (Hospital Universitario de Salamanca, Spain). The primary cells were obtained from bone marrow (BM) aspirates or peripheral blood (PB) samples, and the peripheral blood mononuclear cells (PBMCs) were isolated by Ficoll-Hypaque centrifugation and washed twice in phosphate buffered saline (PBS) containing 1% BSA. Hematopoietic stem cells and B and T lymphocytes were isolated from healthy PB donors by positive immunomagnetic separation using human MACS CD34+, CD19+, and CD3+ microbeads, respectively. MM plasma cells were obtained from the bone marrow (BM) of patients with an infiltration of cells of more than 30% (Table 1). The MM plasma cells were identified using CD138+, and were then distinguished from the other cell populations by flow cytometry using a suitable combination of antibodies: anti-human CD64-FITC, CD34-PE, CD56-APC, CD38-APC-H7, and CD45-Pacific Blue antibodies (BD Biosciences, San Jose, Calif.). All the cell lines were cultured in RPMI-1640 supplemented with 10% fetal bovine serum (FBS) and 1% penicillin/streptomycin, as recommended by the supplier. For human primary cells, the concentration of FBS was up to 20%.
# (§2) The MM cell lines and primary cells were exposed to different doses of indazole compounds, and viability was evaluated at 18, 48, and 72 hours. Pretreatments with the ceramide synthesis inhibitor (FB1), pan-caspase (ZVAD-FMK), and CB antagonists (PGN-8, PGN-37, and PGN-70) were performed for 30 minutes, and then the cells were incubated with indazole compound WIN-55 up to 18 hours. Cell viability was determined using the MTT assay Cell Counting Kit-8 (Dojindo, Kumamoto, Japan) according to the manufacturer's instructions.
# RPMI-LR5 = assay: MTT cell viability assay, myeloma cell line RPMI-LR5; type: cell-based, human; conditions: RPMI-LRS, MTT, 18 hours, doses 0-50 μM; read-out: IC50, cell viability
# Description: as §1, §2
# HL60 = assay: WST-1 cell viability assay, HL60; type: cell-based, human; conditions: HL60, 18 hours
# Description: The cell lines of acute myeloid leukemia KG-1a and HL60 (American Type Culture Collection) were cultured in IMDM medium supplemented with 2 mM of L-glutamine, […] of penicillin, 100 μg/ml of streptomycin, and 15% fetal bovine serum (FBS).
# (§3) The cell lines and primary cells were cultured in 96-well plates (5×10e5 cells per well) with the addition of the indicated concentrations of WIN 55,212-2 or PGN cannabinoids in DMSO or with the solvent only in triplicate at 18, 48, and 72 hours. Caspase inhibitor Z-VAD (OMe)-FMK or the CB2 receptor antagonist PGN-8, -37, and -70, together with the cannabinoid WIN-55,212-2, were also added. Cell viability was determined by means of the WST-1 assay [2-(4-iodophenyl)-3-(4-nitrophenyl)-5-(2,4-disulfophenyl)-2H-tetrazolium] according to the manufacturer's instructions (Dojindo Molecular Technologies). Optical densities were measured at 450 nm using a Multiskan™ Go Microplate plate reader (Thermo Fisher Scientific, Waltham, Mass., USA).
# Now it will be analyzed whether the exposure to cannabinoids had any effect on the viability of the tumor cells in vitro. To that end, the human AML U937, HL60, KG-1a, NB-4, MOLM-13, and KG-1 cell lines were cultured in serum-free medium and exposed to various concentrations of WIN-55,212-2 (range of 100 nM to 50 μM) for 18 hours, and cell viability was measured by means of WST-1 assays (Table 1). […]
# U266 cells = assay: MM xenograft in NGS mice; type: in vivo
# Description: The “NOD/scid/IL-2R gammae null” (NGS) mice were acquired from Charles River (France). The tumor xenografts were induced by the subcutaneous injection of 5×10^6 U266 cells mixed with 100 μl of Matrigel (BD Biosciences) in 8-week old mice. When the tumors became palpable (>0.5 cm), the mice were randomly assigned in the following groups (10 mice per group), which received i.p.: 1) 5 mg/kg WIN-55 every 24 hours, 2) 5 mg/kg WIN-55 every 48 hours, and 3) a vehicle. Two groups were left tumor-free and served as a negative control, receiving treatment every 24 or 48 hours, respectively. The tumor growth was evaluated daily by measuring the two bisecting diameters of the tumor with a digital Vernier gauge or caliper. The volume was calculated using the following formula: volume=length×(width) e2×0.4 mm^3. The animals were sacrificed when the length or width of the tumor reached 2 cm.
# MOLM-13 = assay: WST-1 cell viability assay, MOLM-13; type: cell-based, human; conditions: MOLM-13, 18 hours
# Description: U937, NB-4, KG-1, and MOLM-13 (DMSZ, Braunschweig, Germany) were cultured in complete RPMI 1640 medium (with 2 mM of L-glutamine, 100 mg of penicillin, 100 μg/ml of streptomycin, and with 10% FBS), supplemented with 10 mM HEPES, 1×NaPuvuvato, and 1× non-essential amino acids.
# as §3
# Now it will be analyzed whether the exposure to cannabinoids had any effect on the viability of the tumor cells in vitro. […]
# MM1R = assay: MTT cell viability assay, myeloma cell line MM1R; type: cell-based, human; conditions: MM1R, MTT, 18 hours, doses 0-50 μM; read-out: IC50, cell viability
# Description: as §1, §2
# [1] = tested on: hematopoietic stem cells (CD34+); assay: Viability of hematopoietic stem cells from healthy donors (MTT); type: cell-based, human; conditions: 0-50 μM, 18 hours
# Description: as §1, with “The MM plasma cells were identified using CD138+, and were then distinguished from the other cell populations by flow cytometry using a suitable combination of antibodies: anti-human CD64-FITC, CD34-PE, CD56-APC, CD38-APC-H7, and CD45-Pacific Blue antibodies (BD Biosciences, San Jose, Calif.). All the cell lines were cultured in RPMI-1640 supplemented with 10% fetal bovine serum (FBS) and 1% penicillin/streptomycin, as recommended by the supplier. For human primary cells, the concentration of FBS was up to 20%.” left out
# The MM cell lines and primary cells were exposed to different doses of indazole compounds, and viability was evaluated at 18, 48, and 72 hours. […] Cell viability was determined using the MTT assay Cell Counting Kit-8 (Dojindo, Kumamoto, Japan) according to the manufacturer's instructions.
# HL60 cells = assay: Murine model of AML (HL60 in NSG mice); type: in vivo; conditions: 5 mg/kg/day
# Description: The NOD/scid/IL-2R gammae null (NSG) mice were acquired from Charles River Laboratories International (L'Arbresle, France) and received food and water ad libitum, under specific pathogen-free conditions. When the mice were 8-12 weeks old, AML was induced by intravenous inoculation of the HL60 cell line, and the mice were monitored to confirm progression of the disease by means of studying weight loss and detecting human CD45+ cells in bone marrow BM aspirates and flow cytometry analysis. Once the presence of leukemia cells was confirmed, treatment with a vehicle, WIN-55 212 cannabinoid was administered at a dose of 5 mg/kg/day or cytarabine (ARA-C) at 50 mg/kg for 5 days.
smiles,measurement,setting,value
"CS(=O)(=O)O.Cc1c(C(=O)c2cccc3ccccc23)c2cccc3c2n1[C@H](CN1CCOCC1)CO3 [WIN-55, (R)-(+)-[2,3-dihydro-5-methyl-3-(4-morpholinomethyl)-pyrrolo[1,2,3]-1,4-benzoxazin-6-yl]-1-naphthalenylmethanone mesylate]",IC50,RPMI8226,11.7 µM
same,IC50,RPMI-LR5,16.1 µM
same,% viable cells at 50 μM,HL60,28.4%
same,IC50,HL60,19.4 µM
same,tumor growth (tumor volume),"U266 cells; 5 mg/kg i.p. every 24 or 48 hours, NGS mice, U266 xenograft",considerably inhibits tumor growth
same,first day on which tumor volume differences were statistically significant,U266 cells; 5 mg/kg i.p. every 24 hours,13 days
same,first day on which tumor volume differences were statistically significant,U266 cells; 5 mg/kg i.p. every 48 hours,16 days
same,% viable cells at 50 μM,MOLM-13,56.6%
same,IC50,MOLM-13,25.9 µM
same,IC50,MM1R,12.1 µM
same,hematopoietic stem cell viability,[1],not affected
same,number of HL60 cells in bone marrow,HL60 cells,vast reduction
same,survival,HL60 cells; versus control group and ARA-C group,significant increase in survival
